Reference: US7759373B2, “Large conductance calcium-activated K channel opener” (Mitsubishi Tanabe Pharma Corporation, priority 2001, dated 2010)

Tested on: rhythmic bladder contractions induced by substance P
Experiment: Inhibitory effect on the rhythmic bladder contractions induced by substance P in anesthetized rats
Type: in vivo, rat
Settings: time during which frequency of rhythmic contraction was completely inhibited, 0.25 mg/kg of the compound, substance P infusion
Protocol: Inhibitory effect on the rhythmic bladder contractions induced by substance P in anesthetized rats
For the experiments, Sprague-Dawley female rats (9 to 12 weeks old) weighing between 200 to 300 g were used. After urethane anesthetization (subcutaneously administered with a dose of 1.2 g/kg), cannulae were placed in both right and left femoral veins. One intravenous catheter was used for administration of compounds, and the other was for the substance P (0.33 μg/kg/min) infusion. We also cannulated into ureter to pass urine. Polyethylene catheters were inserted into carotid artery for continuous monitoring of arterial blood pressure and heart rate. For continuous infusion, transurethral bladder catheter was inserted into the bladder through the urethra and tied in place by a ligature around the urethral orifice. One end of the catheter was attached to a pressure transducer in order to measure intravesical pressure. The other end of the catheter was used for infusion of saline into the bladder. After stabilization of blood pressure and heart rate and after the bladder was emptied, cystometry was performed by filling the bladder slowly with about 0.6 ml of saline. After about 10 minutes, intravenous infusion of substance P (0.33 μg/kg/min) was started for stabilization of the micturition reflex. Compounds were administered after stable rhythmic bladder contraction was obtained over 15 minutes. All compounds were dissolved or suspended in saline containing 0.5% Tween 80 for intravenous administration (0.1 ml/kg).
A 100% inhibition time (minute) of the selected compounds of the present invention is shown in the following Table 65 with a rank of A, B or C. These ranges are as mentioned below. A≧20>B≧10>C (minute)

Row | Compound | 100% inhibition time range
1 | CCc1nc(-c2ccc(F)cc2)[nH]c1-c1cccnc1C [Preparation example 48] | C (A≧20>B≧10>C (minute))
2 | O=C(O)Cc1nc(-c2ccc(F)cc2)oc1-c1cc(Cl)ccc1O [Preparation Example 242] | C (A≧20>B≧10>C (minute))
3 | COCc1nc(-c2cccc(F)c2)[nH]c1-c1ccccc1 [Preparation example 123] | C (A≧20>B≧10>C (minute))
4 | N#Cc1cccc(-c2oc(-c3ccc(F)cc3)nc2CC(=O)O)c1 [Preparation Example 522] | B (A≧20>B≧10>C (minute))
5 | COc1ccc(-c2nc(-c3ccc(Cl)c(F)c3)c(CC(=O)O)s2)cc1 [Preparation Example 582] | A (A≧20>B≧10>C (minute))
6 | COc1ccc(-c2nc(-c3ccc(Cl)s3)c(CC(=O)O)o2)cc1 [Preparation Example 516] | B (A≧20>B≧10>C (minute))
7 | Cc1cc(-c2oc(-c3ccc(F)cc3)nc2CC(=O)O)sc1CO [Preparation Example 233] | C (A≧20>B≧10>C (minute))
8 | Cc1cc(-c2nc(CC(=O)O)c(-c3ccc(Cl)cc3)o2)sc1C [Preparation Example 474] | C (A≧20>B≧10>C (minute))
9 | CCc1[nH]c(-c2sccc2CO)nc1-c1cccnc1.Cl.Cl [Preparation example 67, 5-ethyl-2-(3-hydroxymethylthiphen-2-yl)-4-(3-pyridyl)imidazole dihydrochloride] | B (A≧20>B≧10>C (minute))
10 | CCN(CC)c1ccc(-c2nc(CC(=O)O)c(-c3ccsc3)o2)cn1 [Preparation Example 530] | C (A≧20>B≧10>C (minute))
11 | COc1ccc(-c2nc(CC(=O)O)c(-c3ccc(Cl)cc3)o2)cc1 [Preparation Example 475] | B (A≧20>B≧10>C (minute))
12 | O=C(O)Cc1nc(-c2ccc(F)cc2)oc1-c1ccc(F)c(F)c1 [Preparation Example 166] | B (A≧20>B≧10>C (minute))
13 | CCc1nc(-c2ccc(F)cc2)[nH]c1-c1ccc(C)nc1 [Preparation example 47] | B (A≧20>B≧10>C (minute))
14 | COc1ccc(-c2nc(CC(=O)O)c(-c3ccc(Cl)s3)o2)cc1 [Preparation Example 523] | B (A≧20>B≧10>C (minute))
15 | CS(=O)(=O)Nc1nc(-c2ccc(F)cc2)oc1-c1ccsc1.[Na] [Preparation Example 380, N-[2-(4-fluorophenyl)-5-(3-thienyl)oxazol-4-yl]methanesulfonamide sodium salt] | C (A≧20>B≧10>C (minute))
16 | CC(C)COc1cc(-c2oc(-c3ccc(F)cc3)nc2CC(=O)O)ccc1O [Preparation Example 292] | C (A≧20>B≧10>C (minute))
17 | O=C(O)Cc1nc(-c2ccc(Cl)cc2)oc1-c1cccnc1 [Preparation example 142] | C (A≧20>B≧10>C (minute))
18 | O=C(Cc1nc(-c2ccc(F)cc2)oc1-c1ccsc1)NCc1ccccn1 [Preparation Example 375] | C (A≧20>B≧10>C (minute))
19 | O=C(O)Cc1nc(-c2ccc(F)cc2)oc1-c1ccccc1O [Preparation Example 237] | C (A≧20>B≧10>C (minute))
20 | CCc1nc(-c2ccc(F)cc2)[nH]c1-c1cncnc1 [Preparation example 85] | C (A≧20>B≧10>C (minute))
21 | CN(C)c1ccc(-c2nc(-c3ccc(Cl)s3)c(CC(=O)O)s2)cc1 [Preparation Example 589] | A (A≧20>B≧10>C (minute))
22 | CN(C)c1ccc(-c2nc(CC(=O)O)c(-c3ccc(Cl)s3)s2)cn1 [Preparation Example 608] | B (A≧20>B≧10>C (minute))
23 | COc1ccc(-c2nc(-c3ccc(Cl)s3)c(CC(=O)O)s2)cc1 [Preparation Example 570] | A (A≧20>B≧10>C (minute))
24 | NC(=O)Cc1nc(-c2ccc(F)cc2)oc1-c1ccsc1 [Preparation Example 615] | B (A≧20>B≧10>C (minute))
25 | CC(O)c1ccc(-c2oc(-c3ccc(F)cc3)nc2CC(=O)O)s1 (stereo not shown) [Preparation Example 234] | C (A≧20>B≧10>C (minute))
